The experiment concerns CCRF-CEM. In words: Growth inhibition of CCRF-CEM human leukemic lymphoblasts. The experiment is classed as functional, cell-based.

From ChEMBL document CHEMBL1132921, “Analogues of the potent nonpolyglutamatable antifolate N(alpha)-(4-amino-4-deoxypteroyl)-N(delta)-hemiphthaloyl-L-ornithine (PT523) with modifications in the side chain, p-aminobenzoyl moiety, or 9,10-bridge: synthesis and in vitro antitumor activity” (J Med Chem, 2000) come the findings set out here.

The IC50 is the concentration that inhibits the measured activity by half.

Turning to `CCC(Cc1cnc2nc(N)nc(N)c2n1)(C(=O)OC)c1ccc(C(=O)NC(CCCNC(=O)c2ccccc2C(=O)O)C(=O)O)cc1` (centres undefined), half-maximal inhibition (IC50) was put at 54 nM. This counts as double-digit nanomolar.

The compound `Nc1nc(N)c2nc(CCc3ccc(C(=O)NC(CCCNC(=O)c4ccccc4C(=O)O)C(=O)O)cc3)cnc2n1` (centres undefined) had an IC50 of 0.53 nM. Compound `Nc1nc(N)c2nc(CNc3ccc(C(=O)N[C@@H](CCC(=O)O)C(=O)O)cc3)cnc2n1` [AMINOPTERIN] showed an IC50 of 4.4 nM. Next, `Nc1nc(N)c2nc(CNc3ccc(C(=O)NC(CNC(=O)c4ccccc4C(=O)O)C(=O)O)cc3)cnc2n1` (centres undefined): 5.1 nM; `CC(Cc1cnc2nc(N)nc(N)c2n1)c1ccc(C(=O)NC(CCCNC(=O)c2ccccc2C(=O)O)C(=O)O)cc1` (centres undefined): 0.63 nM. Consider `CCC(Cc1cnc2nc(N)nc(N)c2n1)c1ccc(C(=O)NC(CCCNC(=O)c2ccccc2C(=O)O)C(=O)O)cc1` (centres undefined), for which the IC50 was 1.2 nM. To `Nc1nc(N)c2nc(CNc3ccc(C(=O)NC(CCCNC(=O)c4ccccc4C(=O)O)C(=O)O)c4ccccc34)cnc2n1` (centres undefined) belongs 1.2 nM. To `Nc1nc(N)c2nc(CNc3ccc(C(=O)NC(CCCNC(=O)c4cccc(C(=O)O)c4)C(=O)O)cc3)cnc2n1` (centres undefined) belongs 7.5 nM; to `Nc1nc(N)c2nc(CNc3ccc(C(=O)NC(CCSCNC(=O)c4ccccc4C(=O)O)C(=O)O)cc3)cnc2n1` (centres undefined), 5 nM; to `Nc1nc(N)c2nc(CNc3ccc(C(=O)NC(CSCNC(=O)c4ccccc4C(=O)O)C(=O)O)cc3)cnc2n1` (centres undefined), 4.4 nM.

On to `Nc1nc(N)c2nc(CNc3ccc(C(=O)NC(CCNC(=O)c4ccccc4C(=O)O)C(=O)O)cc3)cnc2n1` (centres undefined), for which the midpoint of inhibition, the IC50, lay at 5.5 nM.

Regarding `Nc1nc(N)c2nc(CNc3ccc(C(=O)NC(CCCNC(=O)c4ccc(C(=O)O)cc4)C(=O)O)cc3)cnc2n1` (centres undefined), the IC50 is 55 nM. Next, `Nc1nc(N)c2nc(CNc3ccc(C(=O)NC(CCCCNC(=O)c4ccccc4C(=O)O)C(=O)O)cc3)cnc2n1` (centres undefined): 2.9 nM; `CCC(Cc1cnc2nc(N)nc(N)c2n1)c1ccc(C(=O)N[C@@H](CCC(=O)O)C(=O)O)cc1` (some centres undefined) [EDATREXATE]: 3.3 nM.
